Reference: patent US5318972A, “Pyrimidine nucleoside derivative and antiviral agent containing the derivative as active ingredient” (priority 1990, dated 1994)

How the values were obtained:
host cells = details: background, clinical treatment of HIV-infection; cited from earlier work
[1] = Cytotoxicity to uninfected MT-4 cells; assay type: cell-based; details: human, 5 days incubation at 37° C., concentration at which 50% of cells were destroyed, read-out: 50% cytotoxic concentration to MT-4 cells
Description: (§1) In RPMI 1640 DM culture medium containing 20 mM of Hepes buffer solution, 10% fetal bovine serum and 20 µg/ml of gentamycin, 3×10^4 MT-4 cells (human T cell clone which is destroyed by the infection of HIV) were infected with HIV in an amount of 100 times as large as expected to cause 50% infection of the cells. Immediately thereafter, a predetermined amount of sample was added to the culture medium using 50 mg/ml sample solutions in dimethyl sulfoxide and the cells were cultured at 37° C.
(§2) After 5 days of incubation, the number of existing cells was counted to determine the concentration of the compound required for preventing the death of 50% of the MT-4 cells. Separately, MT-4 cells were cultured in the same way as above except that they were not infected with HIV to determine the concentration of the compound at which 50% of the MT-4 cells were destroyed.

HIV = test: Inhibitory activity for HIV infection (prevention of death of HIV-infected MT-4 cells); assay type: cell-based; details: Human immunodeficiency virus 1, MT4, 120 h, 5 days incubation at 37° C., concentration preventing death of 50% of HIV-infected MT-4 cells
Description: as §1, §2

Structure (SMILES): Cc1cn([C@H]2C[C@H](N=[N+]=[N-])[C@@H](CO)O2)c(=O)[nH]c1=O [3'-deoxy-3'-azidothymidine]
- toxicity in the host cells (host cells): considerable strong toxicity

Structure (SMILES): CCc1c(Sc2ccccc2)n(COCCO)c(=S)[nH]c1=O [Compound 1, 5-ethyl-1-[(2-hydroxyethoxy)methyl]-6-phenylthio-2-thiouracil]
- CC50 at 120 h [1]: 148 µM
- IC50 (HIV): 0.11 µM

Structure (SMILES): CCc1c(Sc2cc(C)cc(C)c2)n(COCCO)c(=O)[nH]c1=O [Compound 2, 6-(3,5-dimethylphenylthio)-5-ethyl-1-[(2-hydroxyethoxy)methyl]uracil]
- CC50 at 120 h [1]: 149 µM

Structure (SMILES): CCc1c(Sc2cc(C)cc(C)c2)n(COCCO)c(=S)[nH]c1=O [Compound 3, 6-(3,5-dimethylphenylthio)-5-ethyl-1-[(2-hydroxyethoxy)methyl]-2-thiouracil]
- CC50 at 120 h [1]: 227 µM
- IC50 (HIV): 0.0078 µM

Structure (SMILES): CCc1c(Sc2cc(Cl)cc(Cl)c2)n(COCCO)c(=O)[nH]c1=O [Compound 6, 6-(3,5-dichlorophenylthio)-5-ethyl-1-[(2-hydroxyethoxy)methyl]uracil]
- CC50 at 120 h [1]: 51 µM
- IC50 (HIV): 0.014 µM

Structure (SMILES): CCc1c(Sc2cc(Cl)cc(Cl)c2)n(COCCO)c(=S)[nH]c1=O [Compound 7, 6-(3,5-dichlorophenylthio)-5-ethyl-1-[(2-hydroxyethoxy)methyl]-2-thiouracil]
- CC50 at 120 h [1]: 64 µM
- IC50 (HIV): 0.043 µM

Structure (SMILES): CCc1c(Cc2ccccc2)n(COCCO)c(=O)[nH]c1=O [Compound 10, 6-benzyl-5-ethyl-1-[(2-hydroxyethoxy)methyl]uracil]
- CC50 at 120 h [1]: 391 µM
- IC50 (HIV): 0.35 µM

Structure (SMILES): CCc1c(Cc2cc(C)cc(C)c2)n(COCCO)c(=O)[nH]c1=O [Compound 12, 6-(3,5-dimethylbenzyl)-5-ethyl-1-[(2-hydroxyethoxy)methyl]uracil]
- CC50 at 120 h [1]: 280 µM
- IC50 (HIV): 0.013 µM

Structure (SMILES): CC(C)c1c(Sc2ccccc2)n(COCCO)c(=S)[nH]c1=O [Compound 20, 1-[(2-hydroxyethoxy)methyl]-6-phenylthio-5-isopropyl-2-thiouracil]
- CC50 at 120 h [1]: 400 µM
- IC50 (HIV): 0.059 µM

Structure (SMILES): Cc1cc(C)cc(Sc2c(C(C)C)c(=O)[nH]c(=O)n2COCCO)c1 [Compound 21, 6-(3,5-dimethylphenylthio)-1-[(2-hydroxyethoxy)methyl]-5-isopropyluracil]
- CC50 at 120 h [1]: 128 µM

Structure (SMILES): Cc1cc(C)cc(Sc2c(C(C)C)c(=O)[nH]c(=S)n2COCCO)c1 [Compound 22, 6-(3,5-dimethylphenylthio)-1-[(2-hydroxyethoxy)methyl]-5-isopropyl-2-thiouracil]
- CC50 at 120 h [1]: 48 µM
- IC50 (HIV): 0.0045 µM

Structure (SMILES): Cc1cc(C)cc(Cc2c(C(C)C)c(=O)[nH]c(=O)n2COCCO)c1 [Compound 31, 6-(3,5-dimethylbenzyl)-1-[(2-hydroxyethoxy)methyl]-5-isopropyluracil]
- CC50 at 120 h [1]: 318 µM
- IC50 (HIV): 0.0066 µM

Structure (SMILES): CCc1c(Sc2ccccc2)n(COCCO)c(=O)[nH]c1=O [Compound 39, 5-ethyl-1-[(2-hydroxyethoxy)methyl]-6-(phenylthio)uracil]
- CC50 at 120 h [1]: 221 µM
- IC50 (HIV): 0.077 µM

Structure (SMILES): CC(C)c1c(Sc2ccccc2)n(COCCO)c(=O)[nH]c1=O [Compound 40, 1-[(2-hydroxyethoxy)methyl]-6-phenylthio-5-isopropyl-uracil]
- CC50 at 120 h [1]: 231 µM
- IC50 (HIV): 0.063 µM

Structure (SMILES): CCCc1c(Sc2ccccc2)n(COCCO)c(=S)[nH]c1=O [compound 3, reference compound]
- CC50 at 120 h [1]: 224 µM
- IC50 (HIV): 3.4 µM

Structure (SMILES): CCCc1c(Sc2ccccc2)n(COCCO)c(=O)[nH]c1=O [compound 4, reference compound]
- CC50 at 120 h [1]: 282 µM
- IC50 (HIV): 13 µM
